Data as given in publication PMC8748767 (Nature Communications, 2022).
Several values for one entry are separate records, joined by “and”; a condition that tells them apart may be missing. Identical values can stand only once. Like-named read-outs stand apart in the source and are kept apart here.

What was measured:
[1] = target: T1, full-length human TH (TH1) (Homo sapiens, UniProt P07101); assay: biochemical; conditions: for IC50: mean ± SD, n = 3, 37 °C, 50 µM L-Tyr, 200 µM BH4
Protocol: (§1) The activity of purified TH and truncated forms was assayed at 37 °C[7]. The purified enzymes were kept on ice and diluted with 0.5% (w/v) bovine serum albumin in 20 mM Na-Hepes pH 7, 200 mM NaCl and centrifuged at 10,000 × g for 5 min at 4 °C. […] TH was added to a final concentration of 1 µg/ml (17 nM subunit) and preincubated at 37 °C for 1 min. […] Protein was removed by precipitation at −20 °C for 90 min followed by centrifugation at 20,000 × g for 14 min at 4 °C. The amount of L-Dopa in the supernatant was determined using a 1200 series high performance liquid chromatography (HPLC) system (Agilent technologies). The chromatographic separation was obtained using an Agilent Zorbax 300-SCX column with 20 mM HAc pH 3.5, 2% (v/v) propanol as mobile phase at a flow rate of 3 ml/min. The fluorescence detector was set to λex = 280 nm and λem = 314 nm.
(§2) Statistical analyses were performed with Graphpad Prism software version 8.3.0. For SRCD, DSC and TH activity measurements, three enzyme samples from independent protein purifications were measured and the mean ± SD (standard deviation) was calculated. The homogeneity of variances was confirmed by Brown-Forsythe tests and multiple comparisons were made using one-way analysis of variance (ANOVA) followed by a post hoc HSD Tukey test. […] The individual curves were fitted to a four-parameter logistic curve by the [Inhibitor] vs. response—Variable slope equation (y = min + ((max − min)/(1 + IC50/X)^Hill Slope) in Graphpad and the mean IC50 ± SD reported.

[2] = target: THNΔ35 (human TH with the first 35 residues deleted) (Homo sapiens, UniProt P07101); assay: Assay of TH activity and inhibition by DA, deletion mutant THNΔ35; format: biochemical
Protocol: as §1, §2

[3] = target: THNΔ43 (human TH lacking the N-terminal 43 residues) (Homo sapiens, UniProt P07101); assay: Assay of TH activity and inhibition by DA, deletion mutant THNΔ43; format: biochemical
Protocol: as §1, §2

[4] = target: THNΔ70 (human TH with the entire N-terminal removed) (Homo sapiens, UniProt P07101); assay: Assay of TH activity and inhibition by DA, deletion mutant THNΔ70; format: biochemical
Protocol: as §1, §2

[5] = target: THS40p (S40 phosphorylated human TH) (Homo sapiens, UniProt P07101); assay: biochemical
Protocol: TH was phosphorylated on S40 (control without kinase)[3], using the catalytic subunit of cAMP-dependent protein kinase (CatPKA, kind gift from S.O. Døskeland[64]). TH (4 mg/ml) was assayed in 50 mM Na-β-glycerophosphate pH 7.5, 1 mM DTT, 0.1 mM EGTA, 1x protease inhibitor cocktail (without EDTA, Pierce), 0.5 mM ATP, 5 mM MgCl2 and incubated with the catalytic subunit of CatPKA (200 nM, diluted from 20 µM in 60% glycerol, 0.5 mg/ml soya bean trypsin inhibitor) for 30 min at 25 °C. […] After phosphorylation, H89 (Sigma) (5 µM) was added and the samples were exchanged into 20 mM Hepes pH 7.0, 200 mM NaCl.
as §1
Statistical analyses were performed with Graphpad Prism software version 8.3.0. For SRCD, DSC and TH activity measurements, three enzyme samples from independent protein purifications were measured and the mean ± SD (standard deviation) was calculated. The homogeneity of variances was confirmed by Brown-Forsythe tests and multiple comparisons were made using one-way analysis of variance (ANOVA) followed by a post hoc HSD Tukey test. […]

[6] = target: T1, full-length human TH (TH1); assay: Differential scanning calorimetry (DSC), thermal stability with DA, TH; format: binding
Protocol: (§3) In all experiments, 9 μM TH in 20 mM Na-Hepes pH 7, 200 mM NaCl was used, with the same buffer as reference, heating from 25 to 75 °C at a scan rate of 200 °C/h.

THNΔ35 = target: T2, THNΔ35 (Homo sapiens, UniProt P07101); assay: Differential scanning calorimetry (DSC), thermal stability with DA, THNΔ35; format: binding
T2 construct: His-MBP (TEV site) (N, cleaved yes); made in house
Protocol: as §3

THNΔ43 = target: T3, THNΔ43 (Homo sapiens, UniProt P07101); assay: Differential scanning calorimetry (DSC), thermal stability with DA, THNΔ43; format: binding
T3 construct: His-MBP (TEV site) (N, cleaved yes); made in house
Protocol: as §3

THNΔ70 = target: T4, THNΔ70 (Homo sapiens, UniProt P07101); assay: Differential scanning calorimetry (DSC), thermal stability with DA, THNΔ70; format: binding
T4 construct: His-MBP (TEV site) (N, cleaved yes); made in house
Protocol: as §3

[7] = target: TH, THNΔ35, THNΔ43, THNΔ70, THS40p (Homo sapiens, UniProt P07101); conditions: far-UV SRCD, two-fold molar ratio of DA
Protocol: SRCD spectra were collected as from 280 to 170 nm (3 scans averaged) at 25 °C on the AU-UV beamline at ASTRID2, part of the Institute for Storage Rings (ISA) facility at the University of Aarhus, Denmark. […] The path length of the cell was confirmed using an interferometry method and found to be 100.1 µm. The protein concentration was measured using Abs280nm prior to the measurements and more accurately by A205nm from the absorption spectra measured simultaneously with the CD spectra, using the respective theoretical extinction coefficients[65]. The A205nm measurements were used in the conversion of raw CD units to ∆ε(M^−1cm^−1) values. Secondary structure content was determined in the 250–180 nm range using the BeStSel algorithm[66].

[8] = individual samples (source data Sup Table 9)

Sequence of THNΔ70 (human TH with the entire N-terminal removed) (P07101 102-528 limits assumed, stated change not applied): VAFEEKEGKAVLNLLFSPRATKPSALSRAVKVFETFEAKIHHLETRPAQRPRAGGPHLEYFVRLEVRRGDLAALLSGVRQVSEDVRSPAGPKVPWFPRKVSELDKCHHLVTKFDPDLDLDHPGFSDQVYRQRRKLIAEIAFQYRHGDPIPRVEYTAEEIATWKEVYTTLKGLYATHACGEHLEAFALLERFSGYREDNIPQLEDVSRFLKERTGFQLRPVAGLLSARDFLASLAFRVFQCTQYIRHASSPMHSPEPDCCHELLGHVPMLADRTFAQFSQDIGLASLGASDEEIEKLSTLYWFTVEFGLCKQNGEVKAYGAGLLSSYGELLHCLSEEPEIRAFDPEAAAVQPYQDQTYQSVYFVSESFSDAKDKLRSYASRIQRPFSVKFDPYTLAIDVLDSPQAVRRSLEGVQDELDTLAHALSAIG
T4 sequence (P07101 102-528 limits assumed, stated change not applied): as above
Sequence of THNΔ43 (human TH lacking the N-terminal 43 residues) (P07101 75-528 limits assumed, stated change not applied): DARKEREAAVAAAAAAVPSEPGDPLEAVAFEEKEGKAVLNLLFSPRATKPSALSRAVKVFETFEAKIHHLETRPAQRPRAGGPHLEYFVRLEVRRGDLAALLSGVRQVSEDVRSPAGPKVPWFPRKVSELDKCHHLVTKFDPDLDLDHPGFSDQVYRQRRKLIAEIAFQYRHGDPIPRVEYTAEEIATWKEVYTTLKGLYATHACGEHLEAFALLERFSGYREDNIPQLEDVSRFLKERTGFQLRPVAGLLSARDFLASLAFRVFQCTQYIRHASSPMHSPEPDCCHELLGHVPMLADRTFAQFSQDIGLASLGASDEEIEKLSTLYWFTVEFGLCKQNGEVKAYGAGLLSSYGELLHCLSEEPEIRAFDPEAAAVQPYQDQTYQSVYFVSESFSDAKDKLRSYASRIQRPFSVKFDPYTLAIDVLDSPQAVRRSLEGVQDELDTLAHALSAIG
T3 sequence (P07101 75-528 limits assumed, stated change not applied): as above
Sequence of THS40p (S40 phosphorylated human TH) (P07101 1-497 isoform P07101-3): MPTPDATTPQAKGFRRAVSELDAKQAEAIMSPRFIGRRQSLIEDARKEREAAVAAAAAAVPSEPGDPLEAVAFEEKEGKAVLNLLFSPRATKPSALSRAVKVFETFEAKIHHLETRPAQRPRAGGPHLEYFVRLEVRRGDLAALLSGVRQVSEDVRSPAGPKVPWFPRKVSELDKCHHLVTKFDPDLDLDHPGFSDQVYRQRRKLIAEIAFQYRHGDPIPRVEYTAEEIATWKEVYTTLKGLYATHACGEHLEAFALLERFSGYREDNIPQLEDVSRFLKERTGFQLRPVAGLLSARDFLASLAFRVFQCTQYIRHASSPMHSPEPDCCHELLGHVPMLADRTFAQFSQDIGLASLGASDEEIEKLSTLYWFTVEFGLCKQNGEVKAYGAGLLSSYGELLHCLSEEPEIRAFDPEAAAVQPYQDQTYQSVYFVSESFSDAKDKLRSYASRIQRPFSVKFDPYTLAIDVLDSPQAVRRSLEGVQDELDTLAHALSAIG
T1 sequence (P07101 1-497 isoform P07101-3): as above
T2 sequence (P07101 67-528 limits assumed, stated change not applied): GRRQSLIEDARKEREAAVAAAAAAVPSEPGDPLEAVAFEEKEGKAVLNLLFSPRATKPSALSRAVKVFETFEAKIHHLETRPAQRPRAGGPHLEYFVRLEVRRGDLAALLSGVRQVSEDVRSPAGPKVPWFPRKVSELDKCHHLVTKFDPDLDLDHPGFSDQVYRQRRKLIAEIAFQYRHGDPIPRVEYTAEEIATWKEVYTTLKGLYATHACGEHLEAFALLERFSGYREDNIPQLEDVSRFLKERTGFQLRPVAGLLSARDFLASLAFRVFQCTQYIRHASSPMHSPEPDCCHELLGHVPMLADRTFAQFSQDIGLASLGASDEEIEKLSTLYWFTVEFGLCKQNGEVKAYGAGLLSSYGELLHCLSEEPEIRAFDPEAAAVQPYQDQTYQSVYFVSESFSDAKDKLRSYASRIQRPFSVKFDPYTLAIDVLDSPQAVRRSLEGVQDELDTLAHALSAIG
Sequence of THNΔ35 (human TH with the first 35 residues deleted) (P07101 67-528 limits assumed, stated change not applied): as above
Sequence of TH, THNΔ35, THNΔ43, THNΔ70, THS40p (P07101 1-497 isoform P07101-3): as the sequence (P07101 1-497 isoform P07101-3) above

NCCc1ccc(O)c(O)c1 [DA, dopamine]
IC50 ([1]; IC50 for DA inhibition of TH activity): 0.49 ± 0.04 µM | IC50 ([1]; read-out: IC50 for DA inhibition of TH activity): ~0.5 µM | remaining activity at 0.08 µM ([1]; read-out: Relative TH activity, TH, 0.08 µM dopamine, relative to mean activity with 0 µM DA, replicates): 102% | remaining activity at 0.63 µM ([1]; read-out: Relative TH activity, TH, 0.63 µM dopamine, relative to mean activity with 0 µM DA, replicates): 48.2% | remaining activity at 5 µM ([1]; read-out: Relative TH activity, TH, 5.00 µM dopamine, relative to mean activity with 0 µM DA, replicates): 10% | remaining activity at 10 µM ([1]; read-out: Relative TH activity, TH, 10.00 µM dopamine, relative to mean activity with 0 µM DA, replicates): 6.24% | IC50 ([2]; THNΔ35, mean ± SD, n = 3, 37 °C, 50 µM L-Tyr, 200 µM BH4): 0.22 ± 0.02 µM | remaining activity at 0.05 µM ([2]; read-out: Relative TH activity, THNΔ35, 0.05 µM dopamine, relative to mean activity with 0 µM DA, replicates): 89.3% | remaining activity at 0.1 µM ([2]; read-out: Relative TH activity, THNΔ35, 0.10 µM dopamine, relative to mean activity with 0 µM DA, replicates): 73.8% | remaining activity at 0.2 µM ([2]; read-out: Relative TH activity, THNΔ35, 0.20 µM dopamine, relative to mean activity with 0 µM DA, replicates): 56.1% | remaining activity at 0.78 µM ([2]; read-out: Relative TH activity, THNΔ35, […] µM dopamine, relative to mean activity with 0 µM DA, replicates): 29.7% | remaining activity at 6.25 µM ([2]; read-out: Relative TH activity, THNΔ35, 6.25 µM dopamine, relative to mean activity with 0 µM DA, replicates): 8.14% | remaining activity at 25 µM ([2]; read-out: Relative TH activity, THNΔ35, […] dopamine, relative to mean activity with 0 µM DA, replicates): 3.12% | IC50 ([3]; THNΔ43, mean ± SD, n = 3, 37 °C, 50 µM L-Tyr, 200 µM BH4): 18.1 ± 1 µM | remaining activity at 0.2 µM ([3]; read-out: Relative TH activity, THNΔ43, 0.20 µM dopamine, relative to mean activity with 0 µM DA, replicates): 105% | remaining activity at 6.25 µM ([3]; read-out: Relative TH activity, THNΔ43, 6.25 µM dopamine, relative to mean activity with 0 µM DA, replicates): 73.9% | remaining activity at 12.49 µM ([3]; read-out: Relative TH activity, THNΔ43, […] µM dopamine, relative to mean activity with 0 µM DA, replicates): 59.8% | remaining activity at 24.98 µM ([3]; read-out: Relative TH activity, THNΔ43, 24.98 µM dopamine, relative to mean activity with 0 µM DA, replicates): 43.9% | remaining activity at 49.97 µM ([3]; read-out: Relative TH activity, THNΔ43, 49.97 µM dopamine, relative to mean activity with 0 µM DA, replicates): 28.7% | remaining activity at 199.88 µM ([3]; read-out: Relative TH activity, THNΔ43, 199.88 µM dopamine, relative to mean activity with 0 µM DA, replicates): 11.8% | IC50 ([4]; THNΔ70, mean ± SD, n = 3, 37 °C, 50 µM L-Tyr, 200 µM BH4): 19.4 ± 5.6 µM | remaining activity at 0.2 µM ([4]; read-out: Relative TH activity, THNΔ70, 0.20 µM dopamine, relative to mean activity with 0 µM DA, replicates): 113% | remaining activity at 12.58 µM ([4]; read-out: Relative TH activity, THNΔ70, […] µM dopamine, relative to mean activity with 0 µM DA, replicates): 74.6% | remaining activity at 50.31 µM ([4]; read-out: Relative TH activity, THNΔ70, 50.31 µM dopamine, relative to mean activity with 0 µM DA, replicates): 35.7% | remaining activity at 201.25 µM ([4]; read-out: Relative TH activity, THNΔ70, 201.25 µM dopamine, relative to mean activity with 0 µM DA, replicates): 13.3% | remaining activity at 1000 µM ([5]; 5 min, read-out: Relative TH activity, THS40p, 1000.00 µM dopamine, relative to mean activity with 0 µM DA, replicates): 0% | IC50 ([5]; Dopamine IC50, THS40p, source data Fig 5f, SEM in a column of its own): 12.4 µM | IC50 ([5]; THS40p, mean ± SD, n = 3, 37 °C, 50 µM L-Tyr, 200 µM BH4, read-out: IC50 for DA inhibition of TH activity): 12.4 ± 2.3 µM | Tonset with DA ([6]; TH + two-fold molar ratio of DA, mean ± SD, without DA 43.3 ± 0.2): 45.2 ± 0.6 °C | Tmax with DA ([6]; TH + two-fold molar ratio of DA, mean ± SD, without DA 54.9 ± 0.4): 58.6 ± 0.6 °C | T max, TH+DA [6, 8]: 59.32 °C and 58.94 °C and 58.11 °C and 58.01 °C | T onset, TH+DA [6, 8]: 45.07 °C and 45.48 °C and 44.42 °C and 45.76 °C | Tonset with DA (THNΔ35; THNΔ35 + two-fold molar ratio of DA, mean ± SD, without DA 37.5 ± 1.2): 39.6 ± 0.3 °C | Tmax with DA (THNΔ35; THNΔ35 + two-fold molar ratio of DA, mean ± SD, without DA 51.7 ± 0.7): 54.9 ± 1.0 °C | T max, THNΔ35+DA (THNΔ35; [8]): 56.43 °C and 54.75 °C and 54.43 °C and 54.1 °C | T onset, THNΔ35+DA (THNΔ35; [8]): 39.27 °C and 39.93 °C and 39.71 °C and 39.61 °C | Tonset with DA (THNΔ43; THNΔ43 + two-fold molar ratio of DA, mean ± SD, without DA 43.3 ± 0.9): 43.5 ± 0.5 °C | Tmax with DA (THNΔ43; THNΔ43 + two-fold molar ratio of DA, mean ± SD, without DA 54.3 ± 1.7): 56.5 ± 0.4 °C | T max, THNΔ43+DA (THNΔ43; [8]): 56.94 °C and 56.71 °C and 56.44 °C and 56.11 °C | T onset, THNΔ43+DA (THNΔ43; [8]): 43.98 °C and 42.91 °C and 43.13 °C and 43.87 °C and 43.53 °C | Tonset with DA (THNΔ70; THNΔ70 + two-fold molar ratio of DA, mean ± SD, without DA 45.0 ± 0.5): 45.6 ± 0.6 °C | Tmax with DA (THNΔ70; THNΔ70 + two-fold molar ratio of DA, mean ± SD, without DA 56.0 ± 0.1): 56.4 ± 0.2 °C | T max, THNΔ70+DA (THNΔ70; [8]): 56.38 °C and 56.21 °C and 56.6 °C | T onset, THNΔ70+DA (THNΔ70; [8]): 45.36 °C and 45.19 °C and 46.36 °C | Effect of incubation with DA on secondary structure (helix content) of TH [7]: no increase in helix content
